What was measured:
[1] = target: SARS-CoV-2 3CL-protease (Severe acute respiratory syndrome coronavirus 2 (2019-nCoV) (SARS-CoV-2), UniProt P0DTD1); experiment: SARS-CoV-2 3C-like (3CL) protease fluorescence assay (FRET); assay type: biochemical; conditions: recombinant SARS-CoV-2 3CL-protease 10 nM, 30 min preincubation, substrate 40 μM, duplicate
[2] = tested on: 229E human coronavirus (hCoV); experiment: microbe, parasite or virus in culture; assay type: cell-based; conditions: unidentified human coronavirus, MRC5, 144 h; MRC-5 cells, MOI 0.05, 6 days at 34° C., ATPlite, duplicate
[3] = tested on: norovirus; conditions: phase II randomized double-blind trial, patients; cited from earlier work

SMILES | IC50 [1] | EC50 [2] | reduction of gastroenteritis symptoms [3]
Cc1cc(C(=O)N[C@H](C(=O)C[C@@H](Cc2ccc(F)cc2)C(=O)N2C[C@]3(C[C@H]2C#N)C(=O)Nc2ccccc23)C(C)C)no1 [Example 5] | < 0.1 µM | – | –
CC(C)CC(CC(=O)[C@@H](NC(=O)OCc1ccccc1)C(C)C)C(=O)N1C[C@]2(C[C@H]1C#N)C(=O)Nc1ccccc12 (some centres unmarked) [Example 3] | > 1 µM | > 1 µM | –
CC(C)[C@H](NC(=O)C(F)(F)F)C(=O)CC(Cc1ccc(F)cc1)C(=O)N1C[C@]2(C[C@H]1C#N)C(=O)Nc1ccccc12 (some centres unmarked) [Example 2] | 0.1 to 1 µM | > 1 µM | –
CCOC(=O)/C=C/[C@@H]1C[C@@]2(CN1C(=O)[C@@H](CC(=O)[C@@H](NC(=O)c1cc(C)on1)C(C)C)Cc1ccc(F)cc1)C(=O)Nc1ccccc12 [Example 6] | > 1 µM | – | –
CC(C)[C@H](NC(=O)OCc1ccccc1)C(=O)CC(Cc1ccc(F)cc1)C(=O)N1C[C@]2(C[C@H]1C#N)C(=O)Nc1ccccc12 (some centres unmarked) [Example 1] | 0.1 to 1 µM | > 1 µM | –
CC(=O)Oc1ccccc1C(=O)Nc1ncc([N+](=O)[O-])s1 [NTZ, nitazoxanide] | – | – | 24 h
CC(C)[C@H](NC(=O)OC(C)(C)C)C(=O)C[C@@H](Cc1ccc(F)cc1)C(=O)N1C[C@]2(C[C@H]1C#N)C(=O)Nc1ccccc12 [Example 26] | < 0.1 µM | – | –
CCOC(=O)/C=C/[C@@H]1C[C@@]2(CN1C(=O)[C@@H](CC(=O)[C@@H](NC(=O)OC(C)(C)C)C(C)C)Cc1ccc(F)cc1)C(=O)Nc1ccccc12 [Example 25] | > 1 µM | – | –

From patent US20230331734A1, “NOVEL SPIROPYRROLIDINE DERIVED ANTIVIRAL AGENTS” (ENANTA PHARMACEUTICALS, INC., priority 2022, published 2023)
